Measured values published in patent US20040186113A1, “Heterocyclic amines for the treatment of conditions associated with gsk-3” (priority 2001, published 2004).

SMILES | melting point
Nc1ncc(-c2cccc(Cl)c2Cl)nc1C(=O)Nc1cccnc1 [Example 12, 3-Amino-6-(2,3-dichlorophenyl)-N-pyridin-3-ylpyrazine-2-carboxamide] | 239 to 241 °C
Nc1ncc(-c2cccs2)nc1C(=O)Nc1cccnc1 [Example 6, 3-Amino-6-(2-thienyl)-N-pyridin-3-ylpyrazine-2-carboxamide] | 178 to 189 °C
Nc1ncc(-c2ccc(F)cc2F)nc1C(=O)Nc1cccnc1 [Example 14, 3-Amino-6-(2,4-difluorophenyl)-N-pyridin-3-ylpyrazine-2-carboxamide] | 232 to 234 °C
Nc1ncc(-c2ccc(F)cc2)nc1C(=O)Nc1cccnc1 [Example 10, 3-Amino-6-(4-fluorophenyl)-N-pyridin-3-ylpyrazine-2-carboxamide] | 193 to 197 °C

Next, values leading:

melting point | SMILES
178 to 182 °C | Cc1ccc(-c2cnc(N)c(C(=O)Nc3cccnc3)n2)cc1C [Example 18, 3-Amino-6-(3,4-dimethylphenyl)-N-pyridin-3-ylpyrazine-2-carboxamide]
236 to 238.5 °C | Nc1ncc(-c2ccc(F)c(Cl)c2)nc1C(=O)Nc1cccnc1 [Example 16, 3-Amino-6-(3-chloro-4-fluorophenyl)-N-pyridin-3-ylpyrazine-2-carboxamide]
221 to 225 °C | Nc1ncc(-c2ccccc2F)nc1C(=O)Nc1cccnc1 [Example 20, 3-Amino-6-(2-fluorophenyl)-N-pyridin-3-ylpyrazine-2-carboxamide]
234.5 to 238 °C | Nc1ncc(-c2cccc(F)c2)nc1C(=O)Nc1cccnc1 [Example 19, 3-Amino-6-(3-fluorophenyl)-N-pyridin-3-ylpyrazine-2-carboxamide]
186 to 189 °C | Cc1cc(-c2cnc(N)c(C(=O)Nc3cccnc3)n2)ccc1F [Example 17, 3-Amino-6-[4-fluoro-3-methylphenyl]-N-pyridin-3-ylpyrazine-2-carboxamide]
232 to 234 °C | Nc1ncc(-c2ccc(F)c(F)c2)nc1C(=O)Nc1cccnc1 [Example 15, 3-Amino-6-(3,4-difluorophenyl)-N-pyridin-3-ylpyrazine-2-carboxamide]
